Results on 4 molecules are retold here after patent US6521215B2, “Compositions and methods for tooth treatment” (priority 1999, dated 2003).

For data set [1] the following is noted: Attin et al., 1997, cited from earlier work.
The conditions of data set [2]: scanning electron microscope, 5000× magnification.
The conditions of data set [3]: enamel exposed to 10% carbamide peroxide; McCracken and Haywood, 1996; cited from earlier work.
The nature of data set [4]: Protease enhanced tooth whitening, shade comparison of left and right halves of the enamel surface in vitro. More on the design: species or system human. Particulars: protease slurry (papain in distilled water) alone vs untreated half of tooth. The method, then:
In this experiment, specimens were prepared in vitro by dividing the enamel surface of the teeth into left and right halves with a visible light cured polymer. This allowed a shade comparison of one side to the other. Specimens were divided into two groups. In both groups, one side of the teeth received an application of protease. Protease slurry was prepared by mixing papain (papaya, crude, Type III) with distilled water and applied via a syringe tip applicator. One group of specimens was then immersed in 30% hydrogen peroxide solution. The other group received no further treatment. Thus, in the first group, one-half of the tooth was first treated with papain and then with hydrogen peroxide, and the second half of the tooth was treated with only hydrogen peroxide. In the other group, one-half of the tooth was treated with papain and the second half of the tooth was untreated.

As for `F` [fluoride], the “hardness of bleached enamel specimens after application” value in data set [1] (high concentration fluoride application) is “restore hardness”.

Turning to `OO` [hydrogen peroxide], the “microscopic pitting of the enamel surface” value in data set [2] was “not seen”.

As to `NC(N)=O.OO` [carbamide peroxide], the enamel microhardness result in data set [1] (10% carbamide peroxide (Opalescence®)) is recorded as “significantly decreased”. Moreover, in data set [3], the “amount of calcium lost from enamel (average)” value is 1.06 micrograms/mm^2.

B1: papain (protein, UniProt P00784 134-345, looked up)
Papain: IPEYVDWRQKGAVTPVKNQGSCGSCWAFSAVVTIEGIIKIRTGNLNEYSEQELLDCDRRSYGCNGGYPWSALQLVAQYGIHYRNTYPYEGVQRYCRSREKGPYAAKTDGVRQVQPYNEGALLYSIANQPVSVVLEAAGKDFQLYRGGIFVGPCGNKVDHAVAAVGYGPNYILIKNSWGTGWGENGYIRIKRGTGNSYGVCGLYTSSFYPVKN
modifications: crude preparation
notes: Protease slurry prepared by mixing papain (papaya, crude, Type III) with distilled water
As to B1, the “whitening effect (change in shade) of treated tooth side” value in data set [4] is “will remove stains and “whiten” a tooth”.
